This note sets out measurements from US5272144A, “Aryloxy-, arylthio-, heteroaryloxy-, heteroarylthio-alkenylene derivatives of amines and pharmaceutical use” (Farmitalia Carlo Erba s.r.l., priority 1988, dated 1993).

The test system of test [1] is reserpine-induced blepharospasm. In words: prevention of reserpine-induced blepharospasm in mice (antidepressant activity). As to conditions: Mus musculus, po, 1 h, per os, 30 min before reserpine 2.4 mg/kg endoperitoneally, blepharospasm scored one hour after reserpine, read-out: BLEPH/ED50 (blepharospasm). Format: in vivo. On the procedure: (§1) The antidepressant activity was evaluated for example in mice on the basis of the prevention of reserpine-induced blepharospasm and hypothermia.

Test [2] has as its system reserpine-induced hypothermia. In words: prevention of reserpine-induced hypothermia in mice (antidepressant activity). Format: in vivo. To be noted: Mus musculus, po, 4 h, per os, 30 min before reserpine 2.4 mg/kg endoperitoneally, rectal temperature four hours after reserpine, read-out: HYPOTH/ED50 (hypothermia). The method, then:
as §1

In the case of `CNC/C=C(\Oc1ccccc1Cl)c1ccccc1` [H 2-Cl H H H CH3 Z, α-(2-chlorophenoxy)-α-phenyl-β-methylaminomethyl-ethylene], the ED50 in test [1] stood at 0.7 mg/kg; in test [2], 0.2 mg/kg.
The like results for `CN(C)C/C=C(\Oc1ccccc1)c1ccccc1` [H H H H CH3 CH3 Z, (Z)α-phenoxy-α-phenyl-β-dimethylaminomethyl-ethylene] were, in that order, 0.5 mg/kg and 1.4 mg/kg.
With `CNC/C=C(/Oc1ccccc1)c1ccc2c(c1)OCO2` [H H 3,4-OCH2 O H CH3 E, α-phenoxy-α-(3,4-methylenedioxyphenyl)-β-methylaminomethyl-ethylene], the ED50 in test [1] amounted to 1 mg/kg; in test [2] it was 1.4 mg/kg.
In the same order, the values of `CNC/C=C(/Oc1ccccc1Cl)c1ccccc1` [H 2-Cl H H H CH3 E, α-(2-chlorophenoxy)-α-phenyl-β-methylaminomethyl-ethylene] are 1.1 mg/kg and 1.2 mg/kg.
The like results for `CN(C)CCCN1c2ccccc2CCc2ccccc21` [IMIPRAMINE, reference compound] were, in that order, 24.1 mg/kg and 10.2 mg/kg.
Turning to `CNC/C=C(\Oc1ccccc1)c1ccc2c(c1)OCO2` [H H 3,4-OCH2 O H CH3 Z, α-phenoxy-α-(3,4-methylenedioxyphenyl)-β-methylaminomethyl-ethylene], the ED50 in test [1] was 2.2 mg/kg; in test [2], 2.4 mg/kg.
In the same order, the values of `CNC/C=C(\Oc1ccc(Cl)c(Cl)c1)c1ccccc1` [3-Cl 4-Cl H H H CH3 Z, α-(3,4-dichlorophenoxy)-α-phenyl-β-methylaminomethyl-ethylene] are 1.2 mg/kg and 1.3 mg/kg.
The like results for `CNC/C=C(\Oc1ccccc1)c1ccccc1` [H H H H H CH3 Z, (Z)α-phenoxy-α-phenyl-β-methylaminomethyl-ethylene] were, in that order, 0.8 mg/kg and 0.8 mg/kg.
